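Growth conditions: 96-well plates. Treatment: test compound, 48 hours, 5 concentrations. Analysis: linear interpolation between bracketing concentrations; unreached endpoints set to highest concentration. Abbreviation: GI50, concentration required for 50% inhibition of growth. TGI: total growth inhibition.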 Where a SMILES comes first, the peptide text is derived from it. [ ]: non-standard residue; d: D form. The star is where a group is joined. Bn2Val = CC(C)[C@@H](C(=O)*)N(Cc1ccccc1)Cc1ccccc1; NMeV = CN[C@H](C(=O)O)C(C)C; X29 = COc1ccc(CN*)c(OC)c1; dNMeA = CN[C@H](C)C(=O)O
Legend:
Assay in all cases: NCI anticancer screen, dose series, 48 h
SK-OV-3 ovarian = test system: SK-OV-3 ovarian
MOLT-4 leukemia = test system: MOLT-4 leukemia
HOP-62 NSCLC = test system: HOP-62 NSCLC
KM12 colon = test system: KM12 colon
HS 578T breast = test system: HS 578T breast
NCI-H522 lung = test system: NCI-H522 lung
MALME-3M melanoma = test system: MALME-3M melanoma
786-0 renal = test system: 786-0 renal
DU-145 prostate = test system: DU-145 prostate
M14 melanoma = test system: M14 melanoma

Row | SMILES | TGI (SK-OV-3 ovarian) [µM] | TGI (MOLT-4 leukemia) [µM] | TGI (HOP-62 NSCLC) [µM] | TGI (KM12 colon) [µM] | TGI (HS 578T breast) [µM] | TGI (NCI-H522 lung) [µM] | TGI (MALME-3M melanoma) [µM] | TGI (786-0 renal) [µM] | TGI (DU-145 prostate) [µM] | TGI (M14 melanoma) [µM] | GI50 (SK-OV-3 ovarian) [µM] | GI50 (MOLT-4 leukemia) [µM] | GI50 (HOP-62 NSCLC) [µM] | GI50 (KM12 colon) [µM] | GI50 (HS 578T breast) [µM] | GI50 (NCI-H522 lung) [µM] | GI50 (MALME-3M melanoma) [µM] | GI50 (DU-145 prostate) [µM] | GI50 (M14 melanoma) [µM]
1 | Nc1ccc(Nc2cc(=O)[nH]c(=O)[nH]2)cc1 | > 100 | > 100 | > 100 | > 100 | > 100 | > 100 | > 100 | > 100 | > 100 |  |  |  |  |  |  |  |  |  | 
2 | COC(=O)c1c(C)cccc1C1CN=NC12Cc1ccc(C)c(C)c1C2=O (centres undefined) |  | 66.4 | > 100 | > 100 | > 100 | 75.4 | > 100 | > 100 | > 100 | 96.2 |  |  |  |  |  |  |  |  | 
3 | CC(C)=CCOc1cc(NC(=S)c2ccsc2C)ccc1Cl | > 100 | > 100 | 58.9 | > 100 | > 100 | > 100 | > 100 | > 100 | > 100 |  |  |  |  |  |  |  |  |  | 
4 | C=C[C@@]1(O)CCCC[C@@H]1CC(Sc1ccccc1)Sc1ccccc1 | 31.6 | > 100 | 29.5 | 37.9 | 33.6 | 26.8 | 28 | 59.5 | 32.2 | 37 |  |  |  |  |  |  |  |  | 
5 | Cc1ccc(-c2nnc(CCCCCCCCc3nnc(-c4ccc(C)cc4O)n3N)n2N)c(O)c1 | > 100 | > 100 |  | > 100 | > 100 | > 100 | > 100 | > 100 | > 100 | > 100 |  |  |  |  |  |  |  |  | 
6 | Cc1nc2n(c1/C=C1/C(=O)Nc3ccccc31)CCS2 | > 100 | > 100 | > 100 | > 100 | > 100 | > 100 | > 100 | > 100 | > 100 | > 100 |  |  |  |  |  |  |  |  | 
7 | O=[N+]([O-])c1ccc2oc(=Nc3ccccc3)c(Nc3ccccc3)nc2c1 | > 100 | > 100 | > 100 | > 100 | > 100 | 67.2 | > 100 | 76.6 | > 100 |  |  |  |  |  |  |  |  |  | 
8 | CC(C)(O)C1CC[C@]2(C)[C@H]3CC[C@@H]4[C@@]5(C)CCCC(C)(C)[C@@H]5CC[C@@]4(C)[C@]3(C)CC[C@@H]12 (some centres undefined) | > 100 | > 100 | > 100 | > 100 | > 100 | > 100 | > 100 | > 100 | > 100 | > 100 |  |  |  |  |  |  |  |  | 
9 | CC(=O)NC1=C(NCCCl)C(=O)c2ccccc2C1=O | > 100 | 75.5 | > 100 | > 100 | > 100 | 59.3 | 27.1 | > 100 | > 100 | 27.7 |  |  |  |  |  |  |  |  | 
10 | COc1ccc(C(Cc2ccccc2)C2NC(=S)NC2=O)cc1 (centres undefined) | > 25 | > 25 | > 25 | > 25 | > 25 | > 25 | > 25 | > 25 | > 25 | > 25 |  |  |  |  |  |  |  |  | 
11 | COc1ccccc1N=Nc1c(O)c(S(=O)(=O)O)cc2cc(S(=O)(=O)O)ccc12 | > 100 | > 100 | > 100 | > 100 | > 100 | > 100 | > 100 | > 100 | > 100 | > 100 |  |  |  |  |  |  |  |  | 
12 | Cn1c([C@H](C#N)C(=O)c2cc(O)ccc2[N+](=O)[O-])nc2ccccc21 |  | > 100 | > 100 | > 100 | > 100 | > 100 | > 100 | > 100 | > 100 | > 100 |  |  |  |  |  |  |  |  | 
13 | CC(C)(C)CC(C)(C)NC(=S)NO | > 100 | > 100 | > 100 | > 100 | > 100 | > 100 | > 100 | > 100 | > 100 | > 100 |  |  |  |  |  |  |  |  | 
14 | CCOC(=O)C(NC(=O)CC)(Nc1ccc(S(=O)(=O)Nc2onc(C)c2C)cc1)C(F)(F)F (centres undefined) | > 100 | > 100 | > 100 | > 100 | > 100 | > 100 | > 100 | > 100 | > 100 | > 100 |  |  |  |  |  |  |  |  | 
15 | O=S(=O)(O)c1cccc2cccc(N=Nc3c(O)ccc4ccccc34)c12 | > 100 | > 100 | > 100 | > 100 | > 100 | > 100 | > 100 | > 100 | > 100 | > 100 |  |  |  |  |  |  |  |  | 
16 | Cc1c(OCc2ccccc2)c(=O)ccn1CCc1c[nH]c2ccccc12 | > 100 | 31.9 | > 100 | > 100 | > 100 | 69.4 | 88.3 | 87 | > 100 | 86.2 |  |  |  |  |  |  |  |  | 

Row | SMILES | TGI (SK-OV-3 ovarian) [µM] | TGI (MOLT-4 leukemia) [µM] | TGI (HOP-62 NSCLC) [µM] | TGI (KM12 colon) [µM] | TGI (HS 578T breast) [µM] | TGI (NCI-H522 lung) [µM] | TGI (MALME-3M melanoma) [µM] | TGI (786-0 renal) [µM] | TGI (DU-145 prostate) [µM] | TGI (M14 melanoma) [µM] | GI50 (SK-OV-3 ovarian) [µM] | GI50 (MOLT-4 leukemia) [µM] | GI50 (HOP-62 NSCLC) [µM] | GI50 (KM12 colon) [µM] | GI50 (HS 578T breast) [µM] | GI50 (NCI-H522 lung) [µM] | GI50 (MALME-3M melanoma) [µM] | GI50 (DU-145 prostate) [µM] | GI50 (M14 melanoma) [µM]
17 | COC(=O)c1c(CC(Cc2ccc3c(c2)CCCC3)C(=O)OC)ccc2c1CCCC2 (centres undefined) | > 100 | > 100 | > 100 | > 100 | > 100 | > 100 | > 100 | > 100 | > 100 | > 100 |  |  |  |  |  |  |  |  | 
18 | COC(=O)C(=O)C(C(=O)C(=O)Nc1cccc([N+](=O)[O-])c1)c1nc2ccc(Cl)cc2[nH]c1=O (centres undefined) | > 100 | > 100 | > 100 | > 100 | > 100 | > 100 |  | > 100 | > 100 | > 100 |  |  |  |  |  |  |  |  | 
19 | NC(=O)c1cc(N(CCO)CCO)c([N+](=O)[O-])cc1[N+](=O)[O-] | > 100 | > 100 | > 100 | > 100 | > 100 | > 100 | > 100 | > 100 | > 100 | > 100 |  |  |  |  |  |  |  |  | 
20 | O=C(Sc1c(-c2ccccc2)c(=O)n(-c2ccccc2)c(=S)n1-c1ccccc1)c1cccs1 | > 100 | 86 | > 100 | > 100 | > 100 | > 100 | > 100 | > 100 | > 100 | > 100 |  |  |  |  |  |  |  |  | 
21 | Cc1ccnc2nc(N)ccc12 | > 100 | > 100 |  | > 100 | > 100 | > 100 | > 100 | > 100 | > 100 | > 100 |  |  |  |  |  |  |  |  | 
22 | COc1ccc(/C=C/C(=O)c2ccc(-n3cc(CN4CCN(c5cc6c(cc5F)c(=O)c(C(=O)O)cn6C5CC5)CC4)nn3)cc2)cc1OC | > 100 | > 100 | > 100 | 4.46 | > 100 | > 100 | 8.41 |  | 34.9 |  | 7.09 | 3.32 | 2.49 | 1.57 | 3.91 | 4.25 | 2.59 | 3.67 | 
23 | CS(=O)(=O)c1nc(-c2cc3c(c(S(C)(=O)=O)n2)CCC3)cc2c1CCCC2 | 77.7 | > 100 | 78.6 | > 100 | 14.1 | 45.9 |  | > 100 | > 100 | > 100 |  |  |  |  |  |  |  |  | 
24 | CCOc1ccc(N=NC2C(=O)N(C(=O)CC(=O)Nc3ccccc3)N=C2C)cc1 (centres undefined) |  | > 100 | > 100 | > 100 | 87.3 | > 100 | > 100 | > 100 | > 100 | > 100 |  |  |  |  |  |  |  |  | 
25 | N#C/C(=C\c1ccc([N+](=O)[O-])s1)c1nc2cc(Cl)ccc2s1 |  | > 100 | 5.44 | 3.84 | 8.45 | 3.56 | 0.541 |  | > 100 | 1.68 |  | 2.11 | 1.83 | 1.44 | 2.45 | 1.18 | 0.202 | 2.75 | 0.382
26 | COc1ccc(CNC(=O)[C@@H]2CCCN2C(=O)[C@@H](C)N(C)C(=O)[C@H](C(C)C)N(C)C(=O)[C@@H](NC(=O)[C@H](C(C)C)N(Cc2ccccc2)Cc2ccccc2)C(C)C)c(OC)c1 (Bn2Val-V[NMeV][dNMeA]P-X29) | 63.2 |  | 21.1 | 5.78 | > 100 | 24.2 | 36.7 | 11.1 | 20.7 | 10.5 |  |  |  |  |  |  |  |  | 
27 | CN1N=C(c2ccncc2)OC1c1cccc(C(F)(F)F)c1 (centres undefined) | > 100 | > 100 | > 100 | > 100 | > 100 | > 100 |  | > 100 | > 100 | > 100 |  |  |  |  |  |  |  |  | 
28 | Nc1nccc(NCC2(CO)CCC2)n1 |  | > 100 | > 100 | > 100 | > 100 | > 100 | > 100 | > 100 | > 100 |  |  |  |  |  |  |  |  |  | 
29 | CCOC(=O)NNC(=O)NCc1ccccc1CNC(=O)NNC(=O)OCC | > 100 | > 100 |  | > 100 | > 100 | > 100 | > 100 | > 100 | > 100 | > 100 |  |  |  |  |  |  |  |  | 
30 | O=c1[nH]c(=O)n(COCCO)c2ccsc12 |  | > 100 | > 100 | > 100 | > 100 | > 100 | > 100 | > 100 | > 100 | > 100 |  |  |  |  |  |  |  |  | 
31 | CC(=O)OC1C2CCC3C(C)(O)C4CC(O)C(C)(C)C4(O)C(O)CC13CC2(C)O (centres undefined) | > 100 |  | > 100 | > 100 | > 100 | > 100 |  | > 100 | > 100 | > 100 |  |  |  |  |  |  |  |  | 

— PubChem BioAssay (NCI)
